Values after ≈ are worked out from the molar mass of the structure shown.
Experiments:
[1] = test system: Ctenocephalides felis adult; experiment: Antiparasitic activity after administration to rats: fleas; assay type: in vivo; conditions: 11.97 mg/kg sc, Ctenocephalides felis adult
Experimental: (§1) Measurement of the Antiparasitic Activity after Administration of a Prodrug to Rats Compounds were dissolved in the appropriate volume of glycerol formal (p.a.) just before application to the animals (dose volume was adjusted to 0.03 mL/kg bodyweight). 5 rats per group were either injected intraperitoneally or subcutaneously. Rats were infested with 30 Dermacentor variabilis nymphs on study days −2, 7, 14, 21, 28, 35 and 30 adult Ctenocephalides fleas on study days −1, 8, 15, 22, 29, 36. Parasite counts were performed on study days 2, 9, 16, 23, 30, 37. Percent efficacy was calculated as arithmetic mean parasite numbers as life attached tick numbers and live flea numbers of the respective study group in comparison to parasite counts on a placebo-treated control group. Infestation of groups with less than 75% efficacy on two consecutive counting occasions will terminated for the respective parasite.

[2] = Measurement of solubility in buffer at pH 6.5; assay type: physicochemical; conditions: aqueous buffer, kinetic from dmso stock; PBS buffer pH 6.5, shaken 24 h at rt, LC-MSMS; read-out: Solubility of example compounds at pH 6.5
How it was run: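 DMSO stock (50 g/L) diluted into PBS pH 6.5, nominal final […], shaken 24 h at rt. After centrifugation, supernatant concentration quantified by LC-MSMS against a 1.2–600 ng/mL calibration curve.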

[3] = test system: Dermacentor variabilis nymph; experiment: Antiparasitic activity after administration to rats: ticks; assay type: in vivo; conditions: 11.97 mg/kg sc, Dermacentor variabilis nymph
Experimental: as §1

[4] = Evaluation of pharmacokinetics in vivo (rat); conditions: concentration of Parent Drug A after admin. of the named substance
Experimental: Evaluation of Pharmacokinetics (In Vivo) To evaluate the pharmacokinetics of test substances in vivo, these test substances are dissolved in appropriate formulation vehicles (ethanol, dimethyl sulfoxide, PEG400, glycerol formal etc.), or mixtures thereof. The test substances are then administered to rats or dogs intravenously, orally or subcutaneously. The intravenous application is performed as bolus. Administered doses range usually between 0.1 to 5 mg/kg, however, doses for subcutaneous and oral administration can exceed this range up to doses of 30 mg/kg. Blood samples are retrieved via a catheter, exsanguination or venous puncture in vials containing appropriate anticoagulants, such as lithium heparinate or potassium EDTA. Plasma is generated from the blood via centrifugation. Blood samples are taken over an appropriate time interval, usually lasting up to 144 h after administration. If necessary, samples from later time points can also be taken. If possible, time points are chosen so that the initial absorption phase, the maximum plasma concentration (Cmax), and exposure within a certain time interval (AUC(0-t))aer described. Furthermore, it is possible to also retrieve organ-, tissue- and urine samples. The quantitative measurement of the test substances in the samples is performed using calibration curves in the respective matrices. The protein content of the samples is precipitated using acetonitrile or methanol. Thereafter, the samples are separated using HPLC in combination with reversed phase chromatography columns. The HPLC system is coupled to a triple quadrupole mass spectrometer via an electrospray interface. The evaluation of the plasma concentration/time profiles are afterwards evaluated using a validated pharmacokinetics evaluation program. […] Relative bioavailability (Frel) was used to describe the exposure of parent drug after prodrug administration compared to the exposure of parent drug after direct administration of compound A which was normalised to 100%.

[5] = Degradation of prodrugs and release of parent drug in dog plasma; assay type: in vitro ADME; conditions: male, Beagle, dog plasma (EDTA stabilized), 37° C., percent area of prodrug at t0
Experimental: Measurement of Release of Parent Drug in Dog Plasma 1 mg of the test compound was dissolved in 0.5 mL acetonitrile/dimethylsulfoxide 9:1. For complete dissolution the HPLC vial was shaken and treated with ultrasound. 20 μL of this solution were added to 1 mL of dog plasma (Beagle, male; EDTA stabilized) under vortexing at a temperature of 37° C. Aliquots (100 μL each) were taken at 0.17, 0.5, 1, 1.5, 2 and 4 hours. Each aliquot was transferred to a vial containing 300 μL of acetonitrile/citric acid buffer pH 3 80:20. These solutions were centrifuged at 5000 rpm for 10 minutes. The supernatant was analysed by HPLC (Method 8) to determine the amount of the test compound. In addition, the reaction mixture was analysed by method 9 (HPLC-MS) at the final timepoint. Both decrease of the prodrug concentration and increase of parent drug concentration were monitored. All data is given as percent area of the prodrug at t0.

solubility at 24 h [2]: 0.018 mg/mL (≈ 23.2 µM) | AUC(0-144 h)norm of parent drug A ([4]; iv bolus): 7.3 kg·h/L | AUC(0-144 h)norm of parent drug A ([4]; sc): 5.9 kg·h/L | recovery at 0.17 h, 39 µg/mL ([5]; 0.17 h): 95% | recovery at 0.5 h, 39 µg/mL ([5]; 0.5 h): 79% | recovery at 1 h, 39 µg/mL ([5]; 1 h): 51% | recovery at 1.5 h, 39 µg/mL ([5]; 1.5 h): 33% | recovery at 2 h, 39 µg/mL ([5]; 2 h): 18% | recovery at 4 h, 39 µg/mL ([5]; 4 h): 0%
SMILES: N#CC1(N(COC(=O)/C=C/C(=O)O)C(=O)c2cc(-c3cnn(-c4c(Cl)cc(C(F)(C(F)(F)F)C(F)(F)F)cc4OC(F)(F)F)c3)ccc2Cl)CC1 [Example 13, (2E)-4-{[(2-Chloro-5-{1-[2-chloro-4-(1,1,1,2,3,3,3-heptafluoropropan-2-yl)-6-(trifluoromethoxy)phenyl]-1H-pyrazol-4-yl}benzoyl)(1-cyanocyclopropyl)amino]methoxy}-4-oxobut-2-enoic acid]
In-vivo Efficacy SD2 ([1]; study day 2): 100% | In-vivo Efficacy SD9 ([1]; study day 9): 97% | In-vivo Efficacy SD16 ([1]; study day 16): 96% | In-vivo Efficacy SD23 ([1]; study day 23): 79% | In-vivo Efficacy SD30 ([1]; study day 30): 57% | In-vivo Efficacy SD37 ([1]; study day 37): 51% | In-vivo Efficacy SD2 ([3]; study day 2): 100% | In-vivo Efficacy SD9 ([3]; study day 9): 100% | In-vivo Efficacy SD16 ([3]; study day 16): 99% | In-vivo Efficacy SD23 ([3]; study day 23): 77% | In-vivo Efficacy SD30 ([3]; study day 30): 59% | In-vivo Efficacy SD37 ([3]; study day 37): 49%

Reference: patent US20220306585A1, “PYRAZOLE DERIVATIVES FOR CONTROLLING ARTHROPODS” (Bayer Animal Health GmbH, priority 2019, published 2022)
